These results are taken from patent US20130295115A1, “COMPOSITIONS AND METHODS FOR TREATING […]” (priority 2010, published 2013).

Assay [1] deals with Sindbis virus. The assay is classed as cell-based.
For assay [2], the system named is Vesicular Stomatitis Virus. The assay is classed as cell-based.
Assay [3] concerns Venezuelan Equine Encephalitis virus (VEE). The class given is cell-based.
The target of the next assay is Sindbis virus / NRAMP2 (Homo sapiens, UniProt P49281). The class given is cell-based.
Sindbis virus / NRAMP2, sequence (P49281 whole entry, looked up): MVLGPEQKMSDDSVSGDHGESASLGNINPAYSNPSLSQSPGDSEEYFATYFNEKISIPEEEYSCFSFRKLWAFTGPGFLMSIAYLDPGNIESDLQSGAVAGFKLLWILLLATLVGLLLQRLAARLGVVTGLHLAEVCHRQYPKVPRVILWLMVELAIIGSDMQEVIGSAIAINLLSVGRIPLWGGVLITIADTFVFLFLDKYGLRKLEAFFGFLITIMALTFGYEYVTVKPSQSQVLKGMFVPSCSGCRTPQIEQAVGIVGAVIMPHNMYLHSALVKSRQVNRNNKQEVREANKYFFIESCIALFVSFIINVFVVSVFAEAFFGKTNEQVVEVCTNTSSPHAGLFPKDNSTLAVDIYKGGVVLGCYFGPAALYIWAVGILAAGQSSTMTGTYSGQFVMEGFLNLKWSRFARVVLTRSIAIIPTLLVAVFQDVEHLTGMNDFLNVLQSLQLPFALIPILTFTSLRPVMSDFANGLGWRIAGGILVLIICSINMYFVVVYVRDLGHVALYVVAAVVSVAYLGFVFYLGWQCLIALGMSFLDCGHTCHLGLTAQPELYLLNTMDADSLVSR
Another assay relates to hNRAMP2. Briefly: NRAMP2 expression (RT-PCR) in U2OS cells with iron. The class given is cell-based, human. The procedure:
Cells were treated with 160 μM Ammonium Iron(III) Citrate for three days prior to and throughout the infection.
Total RNA was purified using Trizol and used for reverse transcription with random priming and MLV-RT (Invitrogen) followed by PCR using the indicated primers.

Another assay concerns West Nile virus. The class given is cell-based.
In a further assay the test system is Ross River virus. The class given is cell-based. Particulars: iron treatment (not shown).
For assay [4], the system named is Sindbis virus. The assay is classed as cell-based. This is another data set of the same source.
The target in assay [5] is human Natural Resistance-Associated Macrophage Protein 2 (hNRAMP2) (human) (UniProt P49281). Briefly: cell-based or functional assay.
human Natural Resistance-Associated Macrophage Protein 2 (hNRAMP2) (human), sequence (P49281 whole entry): as the sequence (P49281 whole entry, looked up) above

Turning to `Cl.N` [ammonium chloride], in the assay on Sindbis virus [1], the Sindbis infection result is reported as “inhibited infection”.
For Ammonium Iron(III) Citrate, the VSV infection entry in assay [2] is “no effect”. Also, the VEE infection result in assay [3] is “sensitive”. On Sindbis virus / NRAMP2, the “NRAMP2 co-precipitation with Sindbis virus” value is “lost” and the “Sindbis virus binding (streptavidin precipitation, immunoblot)” value is on record as “attenuated”. The NRAMP2 expression entry in the assay on hNRAMP2 (NRAMP2 over-expressing cells treated with iron (FIG. 7A)) is “decrease”. Moreover, in the assay with hNRAMP2 (U2OS cells, high iron (FIG. 7A)), the NRAMP2 expression result is reported as “decreased”. Also, the “West Nile virus infection” value with West Nile virus is “no effect”. Moreover, in the assay with Ross River virus, the “Ross River virus infection” value is recorded as “insensitive”. The “reduction in virus binding to iron-treated cells compared to controls” value with Sindbis virus [4] is roughly 17 fold.
In turn, “Sindbis virus (biotinylated infectious virus particles)” returned a percentage of infected cells on NRAMP2 over-expression in [5] of 2 fold.
